Assay results from PMC4551797 (PLoS ONE, 2015).
Like-named read-outs stand apart in the source and are kept apart here.

Biological target: T1, mouse TGR5 (Mus musculus, UniProt Q80SS6)
T1 sequence (Q80SS6 1-329): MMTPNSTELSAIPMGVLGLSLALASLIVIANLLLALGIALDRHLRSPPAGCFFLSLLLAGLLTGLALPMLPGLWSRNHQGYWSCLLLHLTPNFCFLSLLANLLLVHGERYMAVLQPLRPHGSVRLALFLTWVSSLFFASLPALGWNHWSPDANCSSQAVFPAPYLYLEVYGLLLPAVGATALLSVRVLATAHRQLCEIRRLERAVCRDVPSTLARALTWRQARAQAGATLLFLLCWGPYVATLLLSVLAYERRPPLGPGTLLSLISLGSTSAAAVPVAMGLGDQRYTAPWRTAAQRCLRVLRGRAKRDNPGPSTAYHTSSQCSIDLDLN
Test: cAMP production in HEK-293 cells stably transfected with the mouse TGR5 gene (HTRF cAMP assay)
Format: cell-based
Design: expressed in transfected cells
Protocol: HEK-293 cells were obtained from ATCC and a clonal HEK-293 line overexpressing mouse TGR5 was prepared. Both were maintained in Dulbecco’s modified Eagle’s medium (DMEM) containing 10% fetal bovine serum (FBS) and penicillin /streptomycin. Mouse STC-1 cells were obtained from ATCC under agreement with the Cold Spring Harbor Laboratories and maintained in DMEM containing 10% FBS and penicillin /streptomycin. NCI-H716 cells were obtained from ATCC and were maintained in RPMI-1640 with 10% FBS. NCI-H716 cells were cultured in 96 well plate coated with Matrigel (BD). After 72 hours, cAMP production stimulated with TGR5 agonists was measured using HTRF cAMP assay kit (CISBIO). The level of cAMP in suspensions of STC-1 cells stimulated with increasing concentrations of TGR5 agonists was also determined. […] The production of GLP-1 was determined using a GLP-1 Assay (7–36) amide kit (Mesoscale Discovery) following the manufacturer’s instructions. […]
Compound 18 is a novel small molecule agonist of TGR5 developed by Eli Lilly and Company (MW = 508.62, Fig 2A). […] In order to determine potency of compound 18 for the mouse and human TGR5 receptor in cells with endogenous levels of receptor, we measured compound 18-stimulated cAMP production and GLP-1 secretion in both mouse (STC-1) and human (NCI-H716) enteroendocrine cell lines, that we have shown to express TGR5 natively (Fig 1). […]

CC(=O)N1CCC(C(C)N(C(=O)COc2cccc3sc4nc(C)cn4c23)c2ccc(F)cc2)CC1 (centres unmarked) [compound 18]
EC50 (HEK-293 cells over-expressing mouse TGR5, read-out: EC50, cAMP production): 24.7 nM | EC50 (cAMP, unit inferred, x-axis in nM, read-out: EC50 HEK-293-mTGR5 (Fig 2B inset)): 24.7 nM
